Values quoted from earlier work, collected in PubChem BioAssay AID1259409 (Chemical Carcinogenesis Research Information System (CCRIS), 2018).

System: rodent chemically induced tumor inhibition, incidence and multiplicity
Assay: CCRIS tumor inhibitor studies
Conditions: Promoter: NONE USED

Row | SMILES | tumour outcome (control, treated, inhibition, significance) (Carcinogen: 7,12-DIMETHYLBENZ[A]ANTHRACENE, 57-97-6, Dose [Inhibitor]: 0, 100 UMOL/D IN 0.5 ML EMULPHOR EL-620 FOR 5 CONSECUTIVE DAYS BEGINNING AT 47 D OF AGE (STUDY DURATION: 155 D), Route [Inhibitor]: GAVAGE, Species: RAT, Strain/Sex: SPRAGUE-DAWLEY/FEMALE, Target Tissue: Type of Lesion: MAMMARY GLAND: TUMOR, Dose [Carcinogen]: 8 MG IN 1 ML SESAME OIL ONCE AT 50 D OF AGE) | tumour outcome (control, treated, inhibition, significance) (Carcinogen: BENZO[A]PYRENE, 50-32-8, Dose [Inhibitor]: 4 UG IN 0.1 ML ACETONE 3/WK ADMINISTERED SIMULTANEOUSLY WITH CARCINOGEN FOR DURATION OF STUDY (STUDY DURATION: 368 D), Route [Inhibitor]: DERMAL, Species: MOUSE, Strain/Sex: ICR/FEMALE, Target Tissue: Type of Lesion: SKIN: PAPILLOMA, Dose [Carcinogen]: 5 UG IN 0.1 ML ACETONE 3/WK FOR DURATION OF STUDY) | tumour outcome (control, treated, inhibition, significance) (Carcinogen: BENZO[A]PYRENE, 50-32-8, Dose [Inhibitor]: 4 UG IN 0.1 ML ACETONE 3/WK ADMINISTERED SIMULTANEOUSLY WITH CARCINOGEN FOR DURATION OF STUDY (STUDY DURATION: 368 D), Route [Inhibitor]: DERMAL, Species: MOUSE, Strain/Sex: ICR/FEMALE, Target Tissue: Type of Lesion: SKIN: SQUAMOUS CARCINOMA, Dose [Carcinogen]: 5 UG IN 0.1 ML ACETONE 3/WK FOR DURATION OF STUDY) | tumour outcome (control, treated, inhibition, significance) (Carcinogen: BENZO[A]PYRENE, 50-32-8, Dose [Inhibitor]: 12 UG IN 0.1 ML ACETONE 3/WK ADMINISTERED SIMULTANEOUSLY WITH CARCINOGEN FOR DURATION OF STUDY (STUDY DURATION: 368 D), Route [Inhibitor]: DERMAL, Species: MOUSE, Strain/Sex: ICR/FEMALE, Target Tissue: Type of Lesion: SKIN: PAPILLOMA, Dose [Carcinogen]: 5 UG IN 0.1 ML ACETONE 3/WK FOR DURATION OF STUDY) | tumour outcome (control, treated, inhibition, significance) (Carcinogen: BENZO[A]PYRENE, 50-32-8, Dose [Inhibitor]: 12 UG IN 0.1 ML ACETONE 3/WK ADMINISTERED SIMULTANEOUSLY WITH CARCINOGEN FOR DURATION OF STUDY (STUDY DURATION: 368 D), Route [Inhibitor]: DERMAL, Species: MOUSE, Strain/Sex: ICR/FEMALE, Target Tissue: Type of Lesion: SKIN: SQUAMOUS CARCINOMA, Dose [Carcinogen]: 5 UG IN 0.1 ML ACETONE 3/WK FOR DURATION OF STUDY) | tumour outcome (control, treated, inhibition, significance) (Carcinogen: BENZO[A]PYRENE, 50-32-8, Dose [Inhibitor]: 40 UG IN 0.1 ML ACETONE 3/WK ADMINISTERED SIMULTANEOUSLY WITH CARCINOGEN FOR DURATION OF STUDY (STUDY DURATION: 440 D), Route [Inhibitor]: DERMAL, Species: MOUSE, Strain/Sex: ICR/FEMALE, Target Tissue: Type of Lesion: SKIN: PAPILLOMA, Dose [Carcinogen]: 5 UG IN 0.1 ML ACETONE 3/WK FOR DURATION OF STUDY) | tumour outcome (control, treated, inhibition, significance) (Carcinogen: BENZO[A]PYRENE, 50-32-8, Dose [Inhibitor]: 40 UG IN 0.1 ML ACETONE 3/WK ADMINISTERED SIMULTANEOUSLY WITH CARCINOGEN FOR DURATION OF STUDY (STUDY DURATION: 440 D), Route [Inhibitor]: DERMAL, Species: MOUSE, Strain/Sex: ICR/FEMALE, Target Tissue: Type of Lesion: SKIN: SQUAMOUS CARCINOMA, Dose [Carcinogen]: 5 UG IN 0.1 ML ACETONE 3/WK FOR DURATION OF STUDY)
1 | CC(=O)C1CC2CC1CC2N=C=S (configuration not stated) | 17/25 (68%), 8/20 (40%), 41%, not significant |  |  |  |  |  | 
2 | c1cc2ccc3cccc4ccc(c1)c2c34 |  | 14/50 (28%), 12/50 (24%), 14%, not calculated | 10/50 (20%), 6/50 (12%), 40%, not calculated | 14/50 (28%), 26/50 (52%), -86%, not calculated | 10/50 (20%), 20/50 (40%), -100%, not calculated | 16/50 (32%), 35/50 (70%), -119%, not calculated | 12/50 (24%), 26/50 (52%), -117%, not calculated
